Experiment [1] relates to apomorphine-induced climbing and apomorphine-induced disruption of swimming. Description: Test B: antagonism of apomorphine-induced climbing and apomorphine-induced disruption of swimming. It counts as in vivo. The following applies: Mus musculus; oral, female Swiss-Webster mice, 30 min before apomorphine HCl 1.25 mg/kg sc; typical values; read-out: minimum effective dose (decrease in climbing score accompanied by increase in swimming score). As to the method: (§1) The compounds of Formula I are antagonists of dopamine D-2 receptors, and as such are predicted to be useful as antipsychotic drugs. D-2 antagonism can be shown by standard tests such as antagonism of [^3 H]-spiperone binding (Test A), and/or antagonism of apomorphine-induced climbing and apomorphine- induced disruption of swimming (Test B).
Female Swiss-Webster mice weighing approximately 20 g were deprived of food for approximately 24 h and then dosed orally with various doses of either the vehicle or test agent over a range of doses (N=20 mice per treatment group). Thirty minutes later they were dosed with apomorphine HCl at 1.25 mg/kg, sc, and placed into climbing cages. The climbing cages were 9 cm wide, 15 cm deep and 30 cm high. One wall had 27 horizontal rungs spaced 1 cm apart. Thirteen minutes after apomorphine each mouse was observed continuously for 1 min and the highest and lowest rung reached by its front paws was recorded. The mean of these two scores was used as the score for that mouse. (The highest and lowest scores were 27 and 0, respectively.) Immediately after the 1-min climbing observation period each mouse was placed into a circular swimming tank for 2 min and the number of swims was counted. The height of the tank was 15 cm and the diameter was 28 cm. A circular obstacle measuring 10.5 cm in diameter and having a height of 17 cm was placed into the center of the tank, creating a circular swimming channel 8.75 cm wide. The water level was 5.5 cm and the water was kept at room temperature. Marks were placed on the floor and side of the tank 180 degrees apart. A "swim" was scored each time a mouse swam from one mark to the other. The mice were observed through overhead mirrors and the number of 180 degree swims was recorded for each mouse. Activity in this test was indicated by a decrease in the climbing score accompanied by an increase in the swimming score at a given dose of the test compound. Typical values of minimum effective doses in this test were 10 mg/kg for the compound of Example 6 and 20 mg/kg for each of the compounds of Examples 15 and 21.

The target of experiment [2] is T1, dopamine (DA) D-2 receptor (Rattus norvegicus, UniProt P61169).
T1 construct: rat striatal membranes were used; from tissue; host or cells: rat striatum (membranes)
Description: Test A: antagonism of [^3 H]-spiperone binding (D-2 receptor binding assay, rat striatal membranes). Conditions: 0.5 nM [^3 H] spiperone, 40 nM ketanserin, pH 7.7, 37° C., 15 min, typical values, read-out: IC50 (drug concentration which produced a 50% displacement of [^3 H] spiperone).
Description: as §1
The receptor binding assay used to measure affinities of various compounds for the dopamine (DA) D-2 receptor subtype was that described by Saller and Salama in J Pharmacol Exp Ther 236, page 714, 1986.
Specifically, rat striatal membranes were used. Tissue membranes were prepared and washed once in 50 volumes of the appropriate Tris HCl buffer. For the D-2 receptor binding assay, striatal membranes were suspended to a final concentration of 8 mg/ml in 50 mM Tris HCl with 40 nM ketanserin, pH 7.7. Nonspecific binding to D-2 receptors was measured in the presence of 1.0 μM (+)-butaclamol. IC50 s (drug concentration which produced a 50% displacement) for the displacement of 0.5 nM [^3 H] spiperone were determined using at least five concentrations of each drug in triplicate. One-half milliliter of membrane suspension was incubated with the compound of interest or vehicle or nonspecific drug, ligand and appropriate Tris HCl buffer. The final reaction volume totaled 1 ml for each tube and was incubated at 37° C. for 15 min to facilitate binding and ensure equilibrium had been met. A Brandel filtering system equipped with GF/B filters was used to separate bound from free drug. The amount of drug bound to the membranes was assessed using liquid scintillation counting techniques. IC50 values were obtained from a least squares regression of a logit-log transformation of the data. Typical values in this test were, for example, 103 nM (nanomolar) for the compound of Example 6, 84 nM for the compound of Example 15, and 15 nM for the compound of Example 21.

T1 sequence (P61169 whole entry): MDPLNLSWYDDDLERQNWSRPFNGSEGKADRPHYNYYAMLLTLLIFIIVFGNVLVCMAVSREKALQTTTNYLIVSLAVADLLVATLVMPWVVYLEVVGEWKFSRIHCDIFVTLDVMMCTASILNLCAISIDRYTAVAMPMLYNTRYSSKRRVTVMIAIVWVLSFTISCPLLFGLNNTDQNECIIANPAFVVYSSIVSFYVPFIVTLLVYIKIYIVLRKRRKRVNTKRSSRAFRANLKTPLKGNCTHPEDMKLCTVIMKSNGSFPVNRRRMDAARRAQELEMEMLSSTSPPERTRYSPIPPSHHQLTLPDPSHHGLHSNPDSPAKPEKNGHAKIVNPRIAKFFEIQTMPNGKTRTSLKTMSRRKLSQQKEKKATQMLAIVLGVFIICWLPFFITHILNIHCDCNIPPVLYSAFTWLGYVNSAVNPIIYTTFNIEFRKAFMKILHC

With `OC(c1cccnc1)C1CCN(CC23CC(c4ccccc42)c2ccccc23)CC1` (stereo not drawn) [Example 6, 1-[1-(9,10-Dihydro-9,10-methanoanthracen-9-ylmethyl)-4-piperidyl]-1-(3-pyridyl)methanol], the minimal effective dose in experiment [1] stood at 10 mg/kg. Besides, the IC50 in experiment [2] came out at 103 nM.

As for `COc1ccc(C(O)C2CCN(CC34CC(c5ccccc53)c3ccc(Cl)cc34)CC2)cc1` (racemic) [Example 21, (R,S)-1-[1-((9RS, 10RS)-2-Chloro-9,10-dihydro-9,10-methanoanthracen-9-ylmethyl)-4-piperidyl]-1-(4-methoxyphenyl)methanol], in experiment [1], the minimal effective dose came to 20 mg/kg. Besides, the IC50 in experiment [2] turned out to be 15 nM.

As for `COc1cccc(C(O)C2CCN(CC34CC(c5ccccc53)c3ccc(Cl)cc34)CC2)c1` (racemic) [Example 15, (R,S)-1-[1-((9RS,10RS)-2-Chloro-9,10-dihydro-9,10-methanoanthracen-9-ylmethyl)-4-piperidyl]-1-(3-methoxyphenyl)methanol], the minimal effective dose in experiment [1] stood at 20 mg/kg. Moreover, the IC50 in experiment [2] stood at 84 nM.

Values taken from patent US5399568A, “Methanoanthrancenyl piperidyl antipsychotics” (Imperial Chemical Industries plc, priority 1991, dated 1995).
